Measured values as given in the supplement of paper PMC10307832.

Key:
Assay in all cases: relative viability (nuclei count vs DMSO), 5 days (fraction); higher = more cells survive
[1] = compound: O=C(c1cc(Cc2n[nH]c(=O)c3ccccc23)ccc1F)N1CCN(C(=O)C2CC2)CC1 [Olaparib] + Nc1ncn([C@H]2C[C@H](O)[C@@H](CO)O2)c(=O)n1 [Decitabine] (partner 2 µM)
In short: (§1)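 Relative viability divides the nuclei count in treated wells by that in vehicle wells. Lung cancer cell lines were seeded in 1536-well plates, dosed by pin tool the next day, and fixed and stained after 5 days in one step with final 0.05% Triton X-100, 1% formaldehyde and 1 ug/ml Hoechst. Dosing was a single drug or a fixed anchor-drug dose plus five library-drug doses (not always all listed) in √10 steps, and values are medians of duplicate plates imaged at 4×.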

[2] = compound: C[C@@H](Oc1cc(-c2cnn(C3CCNCC3)c2)cnc1N)c1c(Cl)ccc(F)c1Cl [Crizotinib] + CC1(C)CCC(c2ccc(Cl)cc2)=C(CN2CCN(c3ccc(C(=O)NS(=O)(=O)c4ccc(N[C@H](CCN5CCOCC5)CSc5ccccc5)c(S(=O)(=O)C(F)(F)F)c4)cc3)CC2)C1 [Navitoclax] (partner 0.5 µM)
In short: as §1

[3] = compound: C[C@@H](Oc1cc(-c2cnn(C3CCNCC3)c2)cnc1N)c1c(Cl)ccc(F)c1Cl [Crizotinib] + CC(=O)Nc1cccc(-n2c(=O)n(C3CC3)c(=O)c3c(Nc4ccc(I)cc4F)n(C)c(=O)c(C)c32)c1 [Trametinib] (partner 0.02 µM)
In short: as §1

[4] = compound: CC(C)C[C@H](NC(=O)[C@H](CCc1ccccc1)NC(=O)CN1CCOCC1)C(=O)N[C@@H](Cc1ccccc1)C(=O)N[C@@H](CC(C)C)C(=O)[C@@]1(C)CO1 [Carfilzomib] + Cc1nc(Nc2ncc(C(=O)Nc3c(C)cccc3Cl)s2)cc(N2CCN(CCO)CC2)n1 [Dasatinib] (partner 0.075 µM)
In short: as §1

Row | Cell Line | relative viability ([1]; first compound 0.08 µM) | relative viability ([1]; first compound 0.253 µM) | relative viability ([1]; first compound 2.53 µM) | relative viability ([1]; first compound 8 µM) | relative viability ([2]; first compound 0.01 µM) | relative viability ([2]; first compound 0.1 µM) | relative viability ([2]; first compound 0.3162 µM) | relative viability ([2]; first compound 1 µM) | relative viability ([3]; first compound 0.01 µM) | relative viability ([3]; first compound 0.03162 µM) | relative viability ([3]; first compound 0.1 µM) | relative viability ([3]; first compound 0.3162 µM) | relative viability ([3]; first compound 1 µM) | relative viability ([4]; first compound 0.001 µM) | relative viability ([4]; first compound 0.003162 µM) | relative viability ([4]; first compound 0.01 µM) | relative viability ([4]; first compound 0.03162 µM) | relative viability ([4]; first compound 0.1 µM) | relative viability ([2]; first compound 0.03162 µM)
1 | HCC-827 | 0.306 | 0.266 | 0.291 | 0.231 | 0.954 | 0.987 | 1.01 | 0.953 | 0.462 | 0.567 | 0.53 | 0.508 | 0.552 | 0.3 | 0.306 | 0.239 | 0.374 | 0.273 | –
2 | NCI-H1651 | 0.356 | 0.277 | 0.224 | 0.168 | 0.98 | 0.997 | 1.15 | 1.28 | 0.802 | 0.832 | 0.822 | 0.792 | 0.803 | 0.361 | 0.295 | 0.266 | 0.104 | 0.0779 | 1.12
3 | EKVX | 0.238 | 0.276 | 0.337 | 0.276 | 0.879 | 0.95 | 0.871 | 0.961 | 0.342 | 0.367 | 0.347 | 0.298 | 0.374 | 0.49 | 0.342 | 0.597 | 0.478 | 0.214 | 1
4 | 201T | 0.819 | 0.68 | 0.611 | 0.632 | 1.2 | 1.16 | 1.19 | 1.21 | 0.678 | 0.706 | 0.747 | 0.72 | 0.754 | 0.51 | 0.61 | 0.643 | 0.593 | 0.522 | 1.18
5 | NCI-H2009 | 0.391 | 0.336 | 0.337 | 0.32 | 1.1 | 1.17 | 1.21 | 1.22 | 0.268 | 0.277 | 0.26 | 0.217 | 0.301 | 0.293 | 0.386 | 0.3 | 0.113 | 0.0713 | 1.16
6 | NCI-H1975 | 0.339 | 0.312 | 0.331 | 0.248 | 0.965 | 1.03 | 1.26 | 1.06 | 0.338 | 0.326 | 0.363 | 0.373 | 0.402 | – | 0.33 | 0.144 | 0.0922 | 0.107 | 1.06
7 | NCI-H2347 | 0.644 | 0.558 | 0.531 | 0.516 | 0.682 | 0.849 | 0.799 | 0.852 | 0.265 | 0.274 | 0.292 | 0.321 | 0.272 | 0.335 | – | 0.338 | 0.197 | 0.173 | 0.734
8 | PC-14 | 0.153 | 0.124 | 0.101 | 0.105 | 0.983 | 0.991 | 1.04 | 0.998 | 0.842 | 0.742 | 0.78 | 0.699 | 0.756 | 0.311 | 0.305 | 0.241 | 0.0289 | 0.0424 | 0.96
9 | COR-L23 | 0.353 | 0.266 | 0.216 | 0.199 | 0.952 | 1.1 | 0.937 | 1.03 | 0.567 | 0.605 | 0.563 | 0.525 | 0.633 | 0.478 | 0.523 | 0.425 | 0.0606 | 0.0642 | 0.993
10 | LK-2 | 0.258 | 0.254 | 0.271 | 0.184 | 0.826 | 0.674 | 0.967 | 0.905 | 0.858 | 0.749 | 0.674 | 0.805 | 0.728 | 0.299 | 0.349 | 0.229 | 0.154 | 0.17 | 0.938
11 | NCI-H520 | 0.467 | 0.318 | 0.365 | 0.261 | 1.01 | 1.31 | – | 1.12 | 0.603 | 0.744 | 0.767 | 0.568 | 0.668 | 0.204 | 0.17 | 0.168 | 0.188 | 0.213 | 1.05
12 | ChaGo-K-1 | 0.45 | 0.43 | 0.355 | 0.329 | 0.965 | 1.1 | – | 0.854 | 0.867 | 0.92 | 0.876 | 0.825 | 0.915 | 0.546 | 0.591 | 0.585 | 0.335 | 0.203 | 0.922
13 | NCI-H838 | 0.416 | 0.32 | 0.354 | 0.323 | 1.14 | 1.16 | 1.19 | 1.13 | 0.474 | 0.513 | 0.576 | 0.515 | 0.498 | 0.321 | 0.333 | 0.291 | 0.267 | 0.182 | 1.14
14 | NCI-H2126 | 0.614 | 0.544 | 0.541 | 0.542 | 0.834 | 0.842 | 0.759 | 0.832 | 0.511 | 0.539 | 0.557 | 0.55 | 0.591 | 0.655 | 0.641 | 0.705 | 0.655 | 0.268 | 0.826
15 | HCC-366 | 0.186 | 0.144 | 0.0931 | 0.113 | 0.991 | 1.06 | – | 1.17 | 0.342 | 0.388 | 0.367 | – | 0.322 | 0.624 | 0.727 | 0.629 | 0.705 | 0.173 | 1.11
16 | NCI-H2085 | 0.545 | 0.49 | 0.43 | 0.46 | 1.02 | 1.03 | 1.07 | 1.2 | 0.515 | 0.485 | 0.691 | 0.479 | 0.529 | 0.239 | 0.256 | 0.255 | 0.249 | 0.192 | 1.09
17 | LU99A | 0.933 | 0.753 | 0.601 | 0.566 | 0.801 | 0.826 | 0.721 | 0.786 | 0.587 | 0.527 | 0.49 | 0.511 | 0.522 | 0.533 | 0.688 | 0.512 | 0.278 | 0.152 | 0.743
